Test results from PMC11576293, “New series of 4,6-diaryl pyrimidines: facile synthesis and antiproliferative activity as dual EGFR/VEGFR-2 inhibitors” (Frontiers in Chemistry, 2024).

Tests used:
Assay in all cases: NCI-60 single-dose screen
Type in all cases: cell-based
SK-OV-3 = details: Homo sapiens, single dose 10 µM, '-' = no inhibition, read-out: % Growth Inhibition
Procedure, shortened: (§1)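 Was run as a one-dose (10 μM) screen by the NCI Developmental Therapeutics Program, covering 60 tumour cell lines from nine cancer types including renal, melanoma and CNS.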

A498 = details: Homo sapiens, single dose 10 µM, '-' = no inhibition, read-out: % Growth Inhibition
Procedure, shortened: as §1

SNB-75 = details: Homo sapiens, single dose 10 µM, '-' = no inhibition, read-out: % Growth Inhibition
Procedure, shortened: as §1

SK-MEL-5 = details: Homo sapiens, single dose 10 µM, '-' = no inhibition, read-out: % Growth Inhibition
Procedure, shortened: as §1

RPMI-8226 = details: Homo sapiens, single dose 10 µM, '-' = no inhibition, read-out: % Growth Inhibition
Procedure, shortened: as §1

786-0 = details: Homo sapiens, single dose 10 µM, '-' = no inhibition, read-out: % Growth Inhibition
Procedure, shortened: as §1

NCI-H522 = details: Homo sapiens, single dose 10 µM, '-' = no inhibition, read-out: % Growth Inhibition
Procedure, shortened: as §1

MDA-MB-468 = details: Homo sapiens, single dose 10 µM, '-' = no inhibition, read-out: % Growth Inhibition
Procedure, shortened: as §1

SK-MEL-28 = details: Homo sapiens, single dose 10 µM, '-' = no inhibition, read-out: % Growth Inhibition
Procedure, shortened: as §1

HCT-116 = details: Homo sapiens, single dose 10 µM, '-' = no inhibition, read-out: % Growth Inhibition
Procedure, shortened: as §1

MCF7 = details: Homo sapiens, single dose 10 µM, '-' = no inhibition, read-out: % Growth Inhibition
Procedure, shortened: as §1

SW-620 = details: Homo sapiens, single dose 10 µM, '-' = no inhibition, read-out: % Growth Inhibition
Procedure, shortened: as §1

SNB-19 = details: Homo sapiens, single dose 10 µM, '-' = no inhibition, read-out: % Growth Inhibition
Procedure, shortened: as §1

SF-539 = details: Homo sapiens, single dose 10 µM, '-' = no inhibition, read-out: % Growth Inhibition
Procedure, shortened: as §1

CAKI-1 = details: Homo sapiens, single dose 10 µM, '-' = no inhibition, read-out: % Growth Inhibition
Procedure, shortened: as §1

M14 = details: Homo sapiens, single dose 10 µM, '-' = no inhibition, read-out: % Growth Inhibition
Procedure, shortened: as §1

NCI-H460 = details: Homo sapiens, single dose 10 µM, '-' = no inhibition, read-out: % Growth Inhibition
Procedure, shortened: as §1

MOLT-4 = details: Homo sapiens, single dose 10 µM, '-' = no inhibition, read-out: % Growth Inhibition
Procedure, shortened: as §1

PC-3 = details: Homo sapiens, single dose 10 µM, '-' = no inhibition, read-out: % Growth Inhibition
Procedure, shortened: as §1

T-47D = details: Homo sapiens, T47D, single dose 10 µM, '-' = no inhibition, read-out: % Growth Inhibition
Procedure, shortened: as §1

HOP-92 = details: Homo sapiens, single dose 10 µM, '-' = no inhibition, read-out: % Growth Inhibition
Procedure, shortened: as §1

KM12 = details: Homo sapiens, single dose 10 µM, '-' = no inhibition, read-out: % Growth Inhibition
Procedure, shortened: as §1

HCT-15 = details: Homo sapiens, single dose 10 µM, '-' = no inhibition, read-out: % Growth Inhibition
Procedure, shortened: as §1

SK-MEL-2 = details: Homo sapiens, single dose 10 µM, '-' = no inhibition, read-out: % Growth Inhibition
Procedure, shortened: as §1

SF-295 = details: Homo sapiens, single dose 10 µM, '-' = no inhibition, read-out: % Growth Inhibition
Procedure, shortened: as §1

HCC-2998 = details: Homo sapiens, single dose 10 µM, '-' = no inhibition, read-out: % Growth Inhibition
Procedure, shortened: as §1

MALME-3M = details: Homo sapiens, single dose 10 µM, '-' = no inhibition, read-out: % Growth Inhibition
Procedure, shortened: as §1

U251 = details: Homo sapiens, U-251, single dose 10 µM, '-' = no inhibition, read-out: % Growth Inhibition
Procedure, shortened: as §1

CCRF-CEM = details: Homo sapiens, single dose 10 µM, '-' = no inhibition, read-out: % Growth Inhibition
Procedure, shortened: as §1

BT-549 = details: Homo sapiens, single dose 10 µM, '-' = no inhibition, read-out: % Growth Inhibition
Procedure, shortened: as §1

UO-31 = details: Homo sapiens, single dose 10 µM, '-' = no inhibition, read-out: % Growth Inhibition
Procedure, shortened: as §1

ACHN 1 = details: Homo sapiens, single dose 10 µM, '-' = no inhibition, read-out: % Growth Inhibition
Procedure, shortened: as §1

EKVX = details: Homo sapiens, single dose 10 µM, '-' = no inhibition, read-out: % Growth Inhibition
Procedure, shortened: as §1

RXF 393 = details: Homo sapiens, single dose 10 µM, '-' = no inhibition, read-out: % Growth Inhibition
Procedure, shortened: as §1

MDA-MB-435 = details: Homo sapiens, single dose 10 µM, '-' = no inhibition, read-out: % Growth Inhibition
Procedure, shortened: as §1

A549/ATCC = details: Homo sapiens, single dose 10 µM, '-' = no inhibition, read-out: % Growth Inhibition
Procedure, shortened: as §1

SF-268 = details: Homo sapiens, single dose 10 µM, '-' = no inhibition, read-out: % Growth Inhibition
Procedure, shortened: as §1

HOP-62 = details: Homo sapiens, single dose 10 µM, '-' = no inhibition, read-out: % Growth Inhibition
Procedure, shortened: as §1

SN12C = details: Homo sapiens, single dose 10 µM, '-' = no inhibition, read-out: % Growth Inhibition
Procedure, shortened: as §1

NCI/ADR-RES = details: Homo sapiens, single dose 10 µM, '-' = no inhibition, read-out: % Growth Inhibition
Procedure, shortened: as §1

OVCAR-3 = details: Homo sapiens, single dose 10 µM, '-' = no inhibition, read-out: % Growth Inhibition
Procedure, shortened: as §1

IGROV1 = details: Homo sapiens, IGROV-1, single dose 10 µM, '-' = no inhibition, read-out: % Growth Inhibition
Procedure, shortened: as §1

UACC-62 = details: Homo sapiens, single dose 10 µM, '-' = no inhibition, read-out: % Growth Inhibition
Procedure, shortened: as §1

UACC-257 = details: Homo sapiens, single dose 10 µM, '-' = no inhibition, read-out: % Growth Inhibition
Procedure, shortened: as §1

TK-10 = details: Homo sapiens, single dose 10 µM, '-' = no inhibition, read-out: % Growth Inhibition
Procedure, shortened: as §1

OVCAR-5 = details: Homo sapiens, single dose 10 µM, '-' = no inhibition, read-out: % Growth Inhibition
Procedure, shortened: as §1

HS 578T = details: Homo sapiens, single dose 10 µM, '-' = no inhibition, read-out: % Growth Inhibition
Procedure, shortened: as §1

HT29 = details: Homo sapiens, HT-29, single dose 10 µM, '-' = no inhibition, read-out: % Growth Inhibition
Procedure, shortened: as §1

What does the source list for `CCCSc1nc(-c2ccc(Cl)cc2)cc(-c2ccc(OC)c(OC)c2)n1` [Compound 25, 4-(4-Chlorophenyl)-6-(3,4-dimethoxyphenyl)-2-(propylthio)pyrimidine]?
inhibition at 10 µM (SK-OV-3): 2.94%; inhibition at 10 µM (A498): < 0%; inhibition at 10 µM (SNB-75): 2.64%; inhibition at 10 µM (SK-MEL-5): 0.38%; inhibition at 10 µM (RPMI-8226): 10.8%; inhibition at 10 µM (786-0): < 0%; inhibition at 10 µM (NCI-H522): 8%; inhibition at 10 µM (MDA-MB-468): < 0%; inhibition at 10 µM (SK-MEL-28): 17.4%; inhibition at 10 µM (HCT-116): < 0%; inhibition at 10 µM (MCF7): 17.5%; inhibition at 10 µM (SW-620): 3.63%; inhibition at 10 µM (SNB-19): < 0%; inhibition at 10 µM (SF-539): 1.28%; inhibition at 10 µM (CAKI-1): 13.5%; inhibition at 10 µM (M14): < 0%; inhibition at 10 µM (NCI-H460): < 0%; inhibition at 10 µM (MOLT-4): 19.1%; inhibition at 10 µM (PC-3): 6.31%; inhibition at 10 µM (T-47D): 34.5%; inhibition at 10 µM (HOP-92): < 0%; inhibition at 10 µM (KM12): 25.5%; inhibition at 10 µM (HCT-15): 20.9%; inhibition at 10 µM (SK-MEL-2): 14.9%; inhibition at 10 µM (SF-295): 5.66%; inhibition at 10 µM (HCC-2998): 4.26%; inhibition at 10 µM (MALME-3M): 7.34%; inhibition at 10 µM (U251): 7.53%; inhibition at 10 µM (CCRF-CEM): 11.2%; inhibition at 10 µM (BT-549): < 0%; inhibition at 10 µM (UO-31): 8.18%; inhibition at 10 µM (ACHN 1): 7.82%; inhibition at 10 µM (EKVX): 5.09%; inhibition at 10 µM (RXF 393): 8.5%; inhibition at 10 µM (MDA-MB-435): 0.34%; inhibition at 10 µM (A549/ATCC): 17.3%; inhibition at 10 µM (SF-268): 6.85%; inhibition at 10 µM (HOP-62): < 0%; inhibition at 10 µM (SN12C): < 0%; inhibition at 10 µM (NCI/ADR-RES): 11.2%; inhibition at 10 µM (OVCAR-3): < 0%; inhibition at 10 µM (IGROV1): < 0%; inhibition at 10 µM (UACC-62): 3.23%; inhibition at 10 µM (UACC-257): 24.8%; inhibition at 10 µM (TK-10): 11.6%; inhibition at 10 µM (OVCAR-5): 4.78%; inhibition at 10 µM (HS 578T): < 0%; inhibition at 10 µM (HT29): 14.7%

Which results are given for `COc1ccc(-c2cc(-c3ccc(Cl)cc3)nc(SC(C)C)n2)cc1OC` [Compound 26, 4-(4-Chlorophenyl)-2-(isopropylthio)-6-(3,4-dimethoxyphenyl)pyrimidine]?
inhibition at 10 µM (SK-OV-3): < 0%; inhibition at 10 µM (A498): < 0%; inhibition at 10 µM (SNB-75): < 0%; inhibition at 10 µM (SK-MEL-5): < 0%; inhibition at 10 µM (RPMI-8226): 0.53%; inhibition at 10 µM (786-0): < 0%; inhibition at 10 µM (NCI-H522): 9.05%; inhibition at 10 µM (MDA-MB-468): 7.33%; inhibition at 10 µM (SK-MEL-28): < 0%; inhibition at 10 µM (HCT-116): 2.84%; inhibition at 10 µM (MCF7): 18.1%; inhibition at 10 µM (SW-620): 2.64%; inhibition at 10 µM (SNB-19): 3.77%; inhibition at 10 µM (SF-539): < 0%; inhibition at 10 µM (CAKI-1): 9.22%; inhibition at 10 µM (M14): < 0%; inhibition at 10 µM (NCI-H460): < 0%; inhibition at 10 µM (MOLT-4): 5.51%; inhibition at 10 µM (PC-3): < 0%; inhibition at 10 µM (T-47D): 14.2%; inhibition at 10 µM (HOP-92): < 0%; inhibition at 10 µM (KM12): 1.72%; inhibition at 10 µM (HCT-15): 4.73%; inhibition at 10 µM (SK-MEL-2): < 0%; inhibition at 10 µM (SF-295): < 0%; inhibition at 10 µM (HCC-2998): < 0%; inhibition at 10 µM (MALME-3M): < 0%; inhibition at 10 µM (U251): < 0%; inhibition at 10 µM (CCRF-CEM): 1.08%; inhibition at 10 µM (BT-549): < 0%; inhibition at 10 µM (UO-31): 15.2%; inhibition at 10 µM (ACHN 1): < 0%; inhibition at 10 µM (EKVX): 4.59%; inhibition at 10 µM (RXF 393): < 0%; inhibition at 10 µM (MDA-MB-435): 1.25%; inhibition at 10 µM (A549/ATCC): 0.02%; inhibition at 10 µM (SF-268): < 0%; inhibition at 10 µM (HOP-62): < 0%; inhibition at 10 µM (SN12C): 8.05%; inhibition at 10 µM (NCI/ADR-RES): < 0%; inhibition at 10 µM (OVCAR-3): < 0%; inhibition at 10 µM (IGROV1): < 0%; inhibition at 10 µM (UACC-62): 17.4%; inhibition at 10 µM (UACC-257): 0.69%; inhibition at 10 µM (TK-10): < 0%; inhibition at 10 µM (OVCAR-5): < 0%; inhibition at 10 µM (HS 578T): < 0%; inhibition at 10 µM (HT29): 13.1%
